According to paper PMC6996489 (Drug Design, Development and Therapy, 2020):

How the values were obtained:
[1] = target: T1, human recombinant monoamine oxidase B (MAO B) (Homo sapiens, UniProt P27338); assay type: biochemical; settings: MAO B vs MAO A
T1 sequence (P27338 1-520): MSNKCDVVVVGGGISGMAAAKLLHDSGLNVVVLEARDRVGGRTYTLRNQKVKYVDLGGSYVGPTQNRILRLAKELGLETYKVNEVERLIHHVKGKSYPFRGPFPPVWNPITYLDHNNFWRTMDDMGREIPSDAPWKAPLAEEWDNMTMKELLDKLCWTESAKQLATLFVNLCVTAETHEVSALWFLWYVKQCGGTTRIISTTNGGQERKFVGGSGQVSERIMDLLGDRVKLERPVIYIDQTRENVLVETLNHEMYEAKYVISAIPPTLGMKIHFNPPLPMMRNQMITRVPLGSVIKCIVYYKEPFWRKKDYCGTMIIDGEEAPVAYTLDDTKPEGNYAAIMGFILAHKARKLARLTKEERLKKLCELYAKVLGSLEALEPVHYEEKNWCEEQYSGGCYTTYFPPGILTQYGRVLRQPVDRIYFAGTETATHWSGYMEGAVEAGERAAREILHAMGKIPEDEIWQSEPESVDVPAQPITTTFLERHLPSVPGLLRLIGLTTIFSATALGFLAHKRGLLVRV

MAO B = target: T2, MAO B (Homo sapiens, UniProt P27338); settings: seven kynuramine concentrations, Lineweaver–Burk plots
T2 sequence (P27338 1-520): T1 sequence (P27338 1-520)

BuChE = BuChE (Homo sapiens, UniProt P06276); experiment: Butyrylcholine esterase inhibition screening; assay type: biochemical; settings: concentration of 1 µm
AChE = AChE (Homo sapiens, UniProt P22303); experiment: Acetylcholine esterase inhibition screening; assay type: biochemical; settings: concentration of 1 µm
Sequence of AChE (P22303 32-614): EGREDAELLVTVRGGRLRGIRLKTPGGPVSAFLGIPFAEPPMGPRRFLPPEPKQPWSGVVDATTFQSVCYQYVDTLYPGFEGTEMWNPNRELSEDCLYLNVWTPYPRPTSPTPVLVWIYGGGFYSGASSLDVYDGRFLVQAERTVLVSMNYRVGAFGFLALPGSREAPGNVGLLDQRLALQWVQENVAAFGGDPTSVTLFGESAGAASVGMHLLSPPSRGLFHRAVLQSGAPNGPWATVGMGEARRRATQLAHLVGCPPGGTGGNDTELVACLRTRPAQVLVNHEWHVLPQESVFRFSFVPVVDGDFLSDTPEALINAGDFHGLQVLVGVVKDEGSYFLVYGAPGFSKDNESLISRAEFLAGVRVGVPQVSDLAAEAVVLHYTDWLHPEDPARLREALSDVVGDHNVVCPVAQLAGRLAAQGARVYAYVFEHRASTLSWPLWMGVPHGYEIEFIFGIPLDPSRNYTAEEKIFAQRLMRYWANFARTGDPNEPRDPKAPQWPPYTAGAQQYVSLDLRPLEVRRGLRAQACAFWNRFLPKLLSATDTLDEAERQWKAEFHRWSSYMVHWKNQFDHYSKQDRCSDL

Sequence of BuChE (P06276 29-602): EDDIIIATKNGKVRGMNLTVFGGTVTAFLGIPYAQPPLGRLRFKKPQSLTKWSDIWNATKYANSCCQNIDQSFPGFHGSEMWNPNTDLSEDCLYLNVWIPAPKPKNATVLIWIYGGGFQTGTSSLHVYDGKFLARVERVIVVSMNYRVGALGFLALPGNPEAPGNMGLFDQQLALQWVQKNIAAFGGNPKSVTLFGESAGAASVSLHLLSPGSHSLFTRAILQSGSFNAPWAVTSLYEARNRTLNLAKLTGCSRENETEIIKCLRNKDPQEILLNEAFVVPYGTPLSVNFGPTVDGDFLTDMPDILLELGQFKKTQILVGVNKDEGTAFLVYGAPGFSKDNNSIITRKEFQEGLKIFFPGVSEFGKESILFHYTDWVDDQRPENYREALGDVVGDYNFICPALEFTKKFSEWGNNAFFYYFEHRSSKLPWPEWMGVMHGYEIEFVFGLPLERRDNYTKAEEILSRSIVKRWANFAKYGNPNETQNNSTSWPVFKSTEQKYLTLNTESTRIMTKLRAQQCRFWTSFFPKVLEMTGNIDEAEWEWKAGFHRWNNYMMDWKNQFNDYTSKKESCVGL

SMILES	fold lower affinity towards MAO B than MAO A [1]	Type of MAO B inhibition (MAO B)	inhibition of BuChE at 1 µm (BuChE)	inhibition of AChE at 1 µm (AChE)
O=C(Nc1ccc([N+](=O)[O-])cc1[N+](=O)[O-])c1ccccc1 [Compound 7, N-(2,4-Dinitrophenyl)benzamide]	8.3 fold	–	–	–
O=C(Nc1ccc([N+](=O)[O-])cc1[N+](=O)[O-])c1ccc2c(c1)OCO2 [Compound 55, N-(2,4-Dinitrophenyl)benzo[d][1,3]dioxole-5-carboxamide]	–	competitive	57±4.5%	24±1.8%
